Data set [1] concerns the target T1, NHE-1 (Oryctolagus cuniculus, UniProt P23791).
T1 construct: endogenous in cells; host or cells: rabbit platelets in platelet-rich plasma (male rabbits)
Description: NHE-1 inhibition assay on rabbit platelets (platelet shape change after acidification with sodium propionate, laser aggregometer). In kind it is cell-based. As to conditions: for inhibition at 0.01 µM: 10 nM, rabbit platelet-rich plasma, decimal commas, read-out: NHE-1 inhibition at 10 nM, m ± SD, n = 6 (%); for NHE-1 inhibitory activity (in words): compared with reference drugs. The protocol: Evaluation of NHE-1 inhibition was carried out on rabbit platelets by the known method[39],[40]. The experiments were carried out on 15 male rabbits weighing 3.0-4.0 kg. Platelet-rich plasma (PRP) was obtained by centrifuging blood with 3.8% sodium citrate (1:10) at 1000 rpm for 12 min (Multi centrifuge CM 6M, Latvia). Platelet shapeshifting due to acidification was followed with a laser aggregometer BIOLA-220 LA (Russia). Test compounds (10 μl, 10 nM final concentration) were added to 200 μl of PRP 5 min in a cuvette before the addition of sodium propionate solution, incubated with constant stirring using a magnetic stirrer (800 rpm, 37 °C). To control samples for NHE-1 activation, a buffer solution containing sodium propionate was added to 200 μL of PRP (600 μL, 135 mM sodium propionate, 20 mM HEPES, 1 mM CaCI2, 1 mM MgCI2, 10 mM glucose; pH 6.7). The change in light transmission at pH 7.4, 37 °C was monitored in a Krebs solution (600 μL, 120 mM NaCl, 4.8 mM KCl, 1.2 mM KH2PO4, 2.5 mM MgSO4, 25 mM NaHCO3, 2.6 mM CaCl2, 5.4 mM glucose; pH 7.4). Test compounds were added to a final concentration of 10 nM to the cuvette into 200 μl of PRP 5 min before adding the sodium propionate solution, incubated with constant stirring using a magnetic stirrer (800 rpm, 37 °C). NHE-1 inhibitors zoniporide, rimeporide, amiloride were used as reference drugs. Assays were run in 6 independent series.

Data set [2] concerns primary peritoneal macrophages of C57BL/6J mice. The data set can be described thus: Nitric oxide synthesis (nitrite, Griess reagent) in LPS-stimulated peritoneal macrophages. In kind it is cell-based. The settings on record: 100 μM. The protocol:
(§1) Peritoneal macrophages (PM) were isolated from the peritoneal exudate of 30 male C57bl/6j mice. To accumulate PM, 1 ml of 3% peptone solution was injected intraperitoneally. After 3 days the mice were euthanized by cervical dislocation. Cells of peritoneal exudate were obtained by aseptically washing the abdominal cavity with 5 ml of sterile Hanks’s solution (+ 4-6 °C) without calcium and magnesium ions. The total number and viability of cells were assessed in a Goryaev counting chamber (Russia) with a 0.4% trypan blue staining (Sigma-Aldrich, USA). The cell concentration was adjusted to 1.0×10^6 cells/ml in DMEM (Gibco) supplemented with 2 mM L-glutamine (Gibco), 10% heat-inactivated fetal bovine serum (BioClot, Germany), 100 U/ml penicillin and […] streptomycin (Gibco) and plated 200 μl/well in 96-well transparent plates (SPL Life Sciences Co., Ltd., Korea). It was left for 2 h at 37°C in a humidified atmosphere with 5% CO2, after which the wells were washed to remove non-adherent cells. After 24 hours of incubation, 20 μl of the supernatant was removed and 20 μl of solutions of test compounds were added 30 min before E. coli O127:B8 LPS (100 ng/ml final concentration). Experiments were run in 3 independent replicates.
The accumulation of nitrite anion (a stable end product of NO decomposition produced by iNOS) in supernatants was determined using a standard Griess reagent. Briefly, 50 μl of supernatants collected 22 hours after incubation of PM with test and control compounds were mixed with 50 μl of 1% sulfonamide in 2.5% H3PO4 and 50 μl of 0.1% N-(1-naphthyl) ethylenediamine in 2,5% H3PO4. After incubation at 23 °C for 10 min in an orbital shaker, the optical density was determined at a wavelength of 550 nm with a microplate reader Infinite M200 PRO (Tecan, Austria).
(In general: Nitrite, measured by Griess reagent, commonly stands in for NO production.)

For data set [3] the test system is unchanged. Description: Cytotoxicity study (LDH activity in the medium) in peritoneal macrophages. As to conditions: 100 μM, peritoneal macrophages. It is filed as cell-based. The protocol: as §1
(§2) The activity of lactate dehydrogenase (LDH) in a cell culture medium served as a marker of membrane permeability and cell death. Aliquotes of supernatants were taken after 24 h of inoculation with test compounds, mixed with 250 μl of […] NADH solution in 54 mM phosphate buffered saline (pH 7.5). Then, 25 μl of a 6.48 mM pyruvate solution was added to the mixture. The optical density was followed at a wavelength of 340 nm for 20 min. Conversion of optical density into cell viability was carried out according to a standard curve (DMSO-treated cells as 100% and 0.01% Triton X-100-treated cells as 0% viable cells).

The test system of the next data set is intraocular pressure. Description: Intraocular pressure studies in outbred rats (TonoVet). It is filed as in vivo. As to the method:
The experiments were carried out on 75 adult outbred rats of both sexes, which were kept in standard cages at a temperature of 25 °C and a standard light regime. Animals were randomly assigned to the control and experimental groups (n = 5). Before the start of the experiment, the rats had free access to food and water. Intraocular pressure (IOP) was measured with a TonoVet device (Finland)[44] which measures IOP with a short touch of a small disposable tip in the center of the cornea, no corneal anesthesia is required. The study was carried out according to the published method. One drop (50 μl) of a test 0.4% solution of the compound was instilled into the right eye, and deionized water was added to the left eye. IOP was measured in both eyes. The left eye, in turn, serves to assess the possible systemic exposure of the test compounds. […] IOP-lowering activity was assessed as the maximum decrease in IOP from the initial values. At 9:00 AM, baseline IOP was measured in animals of all groups. Experiments were run in 5 independent replicates.

In data set [4] the target is T1, NHE-1. The data set can be described thus: NHE-1 inhibition assay on rabbit platelets (platelet shape change after acidification with sodium propionate, laser aggregometer). In kind it is cell-based.
A further data set concerns rabbit platelets. Description: ADP-induced platelet aggregation assay in rabbit platelet-rich plasma. It is filed as cell-based. As to conditions: 100 μM, ADP 5 μM. The protocol:
(§3) Functional activity of platelets was determined on a two-channel laser analyzer of platelet aggregation "BIOLA-220 LA" (Russia) as described previously. The experiments were carried out on 6 male rabbits weighing 3.5–4 kg. To prepare platelet-rich plasma (PRP) venous blood was taken from the ear marginal vein of a rabbit, stabilized with a 3.8% sodium citrate solution in a ratio of 9:1 and centrifuged for 10 min at 1500 rpm. PRP (300 μL) and a solution of the test compound at a concentration of 100 μM were sequentially introduced into the cell of the aggregometer. The samples were incubated in thermostated cells of the aggregometer at 37 °C for 5 min. To induce aggregation adenosine-5-diphosphoric acid (ADP, Sigma, USA) at a final concentration of 5 μM, was added to the cuvette. Acetylsalicylic acid (Shandong Xinhua Pharmaceutical Co., Ltd., China) was used as a reference drug. Experiments were run in 5 independent replicates.

Data set [5] can be described thus: Solubility under the conditions of the platelet aggregation assay. The settings on record: antiplatelet assay. In kind it is physicochemical. As to the method: Test compounds were dissolved in 99% DMSO (stock concentration 40 mM) and stored at –25 °C. If sediment or opalescence was detected, 5% Tween 20 (Merck) was added. Serial dilutions were prepared ex tempore in a media suitable for the particular study. Final concentration in samples: DMSO <0.25%, Tween 20 <0.025% (were added to control samples in equal concentrations).
as §3

Data set [6] deals with primary peritoneal macrophages of C57BL/6J mice. Description: Interleukin-6 secretion (ELISA) from LPS-stimulated peritoneal macrophages. It is filed as cell-based. The settings on record: for secretion of interleukin 6: LPS-stimulated macrophages, screening (Fig. 4). The protocol: as §1
Cell supernatant was collected and centrifuged at 1000 g for 20 min in a 2-16PK Sigma centrifuge (Germany). The concentration of IL-6 was determined by ELISA using a commercial kit (Cloud-clone ELISA kit) with a microplate reader Infinite M200 PRO (Tecan, Austria).
On the technique in general: ELISA stands for enzyme-linked immunosorbent assay.

A short description of data set [7]: Cytotoxicity study (LDH activity in the medium) in peritoneal macrophages. It is filed as cell-based. As to conditions: male, C57BL/6J, mouse, primary peritoneal macrophages; murine peritoneal macrophages, LDH, unit printed in Cyrillic. As to the method:
as §1, §2

The values that follow come from article PMC8692498, “Synthesis and multifaceted pharmacological activity of novel quinazoline NHE-1 inhibitors” (Scientific Reports, 2021).

“Also recorded” adds a separate entry of the source. Some results are limits rather than exact numbers.

T1 sequence (P23791 whole entry): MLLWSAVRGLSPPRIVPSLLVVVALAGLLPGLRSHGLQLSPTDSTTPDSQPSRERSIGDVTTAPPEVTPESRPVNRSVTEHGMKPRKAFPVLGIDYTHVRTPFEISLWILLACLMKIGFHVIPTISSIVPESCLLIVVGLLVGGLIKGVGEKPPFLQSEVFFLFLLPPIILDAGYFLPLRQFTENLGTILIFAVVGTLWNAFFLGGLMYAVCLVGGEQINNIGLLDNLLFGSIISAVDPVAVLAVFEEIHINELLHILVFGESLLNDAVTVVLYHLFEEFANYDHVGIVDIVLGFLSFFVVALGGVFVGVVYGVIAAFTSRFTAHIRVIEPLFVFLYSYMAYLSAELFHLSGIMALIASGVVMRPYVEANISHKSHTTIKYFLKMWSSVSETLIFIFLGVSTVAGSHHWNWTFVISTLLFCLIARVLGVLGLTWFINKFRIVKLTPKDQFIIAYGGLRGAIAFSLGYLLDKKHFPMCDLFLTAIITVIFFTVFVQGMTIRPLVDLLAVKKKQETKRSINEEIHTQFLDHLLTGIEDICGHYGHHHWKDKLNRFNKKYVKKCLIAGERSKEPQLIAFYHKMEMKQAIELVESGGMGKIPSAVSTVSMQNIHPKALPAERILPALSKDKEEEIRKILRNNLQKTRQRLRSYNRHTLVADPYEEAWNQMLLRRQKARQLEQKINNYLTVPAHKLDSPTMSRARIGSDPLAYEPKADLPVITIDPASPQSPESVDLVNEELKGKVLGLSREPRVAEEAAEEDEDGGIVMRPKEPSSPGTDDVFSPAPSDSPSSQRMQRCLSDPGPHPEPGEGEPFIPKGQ

In the case of `Cn1c(=O)n(CC(=O)NC(=N)N)c(=O)c2cc(Br)ccc21` [Compound 3d, 2-(6-Bromo-1-methyl-2,4-dioxo-1,4-dihydroquinazolin-3(2H)-yl)-N-carbamimidoylacetamide], on NHE-1 [1], the inhibition (commonly the change of the read-out against control, counted positive when it falls) at 0.01 µM was 33.2% and the “NHE-1 inhibitory activity (in words)” value is “comparable to the reference drug rimeporide”. For the same compound, the “inhibition of the synthesis of nitric oxide” value in data set [2] is on record as “statistically significantly inhibit”. In data set [3], the “effect on cell viability” value is “absence of a statistically significant effect on cell viability”. The IOP-lowering effect size result with intraocular pressure (compared with zoniporide and timolol) is “comparable to zoniporide and superior to timolol”. In the data set on intraocular pressure (one drop (50 μl) of 0.4% solution instilled), the IOP-lowering activity result is recorded as “statistically significant activity; also recorded: markedly reduce intraocular pressure”. Inhibition at NHE-1 [4] was half-maximal at 961 nM (IC50).
For `N=C(N)NC(=O)c1cnn(-c2cccc3ncccc23)c1C1CC1` [Zoniporide, zoniporide, reference compound], the inhibition at 0.01 µM at NHE-1 [1] is 48%. The IC50 (commonly the concentration that gives 50% inhibition) against NHE-1 [4] amounted to 7.3 nM.
For `[H]/N=C(\N)NC(=O)c1cc(S(C)(=O)=O)c(S(C)(=O)=O)cc1C` [Rimeporide, rimeporide, reference compound], the inhibition at 0.01 µM on NHE-1 [1] was 34.2%.
As to `C=CCn1c(=O)n(Cc2nnc(N)[nH]2)c(=O)c2ccccc21` [Compound 3g, 3-[(5-Amino-4H-1,2,4-triazol-3-yl)methyl]-1-(prop-2-en-1-yl)quinazoline-2,4(1H,3H)-dione], the melting point (commonly the temperature of the solid-liquid transition) is 275 to 277 °C. Moreover, the inhibition at 0.01 µM at NHE-1 [1] came to 10.4%.
With `CC(c1nnc(N)[nH]1)n1c(=O)c2ccccc2n(C)c1=O` (centres unmarked) [Compound 3f, 3-[1-(5-Amino-4H-1,2,4-triazol-3-yl)ethyl]-1-methylquinazoline-2,4(1H,3H)-dione], the inhibition at 0.01 µM at NHE-1 [1] amounted to 29.8%. The “antiplatelet activity versus acetylsalicylic acid” value in the data set on rabbit platelets is on record as “exceeded the activity of the reference drug, acetylsalicylic acid”.
For `Nc1nnc(Cn2cnc3ccccc3c2=O)[nH]1` [Compound 6a, 3-[(5-Amino-4H-1,2,4-triazol-3-yl)methyl]quinazolin-4(3H)-one], at NHE-1 [1], the inhibition at 0.01 µM turned out to be 54.1%; the “NHE-1 inhibitory activity (in words)” value was “more potent and comparable to zoniporide”. Also, in data set [5], the “solubility under assay conditions” value was “insoluble under assay conditions”. Besides, the IC50 at NHE-1 [4] amounted to 6.7 nM.
Compound `C=CCn1c(=O)n(C(C)c2nnc(N)[nH]2)c(=O)c2ccccc21` (centres unmarked) (hydrate or solvate) [Compound 3h, 3-[1-(5-Amino-4H-1,2,4-triazol-3-yl)ethyl]-1-(prop-2-en-1-yl)quinazoline-2,4(1H,3H)-dione] yielded a melting point of 116 to 118 °C.
Turning to `CC(C(=O)NC(=N)N)n1c(=O)c2ccccc2n(C)c1=O` (centres unmarked) [Compound 3b, N-Carbamimidoyl-2-(1-methyl-2,4-dioxo-1,4-dihydroquinazolin-3(2H)-yl)propanamide], the melting point fell in the range of 216 to 219 °C. In addition, the inhibition at 0.01 µM on NHE-1 [1] amounted to 1.49%. Moreover, the “secretion of interleukin 6” value in data set [6] is given as “suppressed”.
Turning to `C=CCn1c(=O)n(C(C)c2nnc(N)[nH]2)c(=O)c2ccccc21` (centres unmarked) [Compound 3h, 3-[1-(5-Amino-4H-1,2,4-triazol-3-yl)ethyl]-1-(prop-2-en-1-yl)quinazoline-2,4(1H,3H)-dione], on NHE-1 [1], the inhibition at 0.01 µM is 33.2% and the “NHE-1 inhibitory activity (in words)” value is recorded as “comparable to the reference drug rimeporide”. Moreover, the “antiplatelet activity versus acetylsalicylic acid” value with rabbit platelets is given as “exceeded the activity of the reference drug, acetylsalicylic acid”.
Take `CC(c1nnc(N)[nH]1)n1c(=O)c2ccccc2n(C)c1=O` (centres unmarked) (hydrate or solvate) [Compound 3f, 3-[1-(5-Amino-4H-1,2,4-triazol-3-yl)ethyl]-1-methylquinazoline-2,4(1H,3H)-dione]: the melting point lay within 91 to 93 °C.
For the compound `Cn1c(=O)n(CC(=O)NC(=N)N)c(=O)c2ccccc21` [Compound 3a, N-Carbamimidoyl-2-(1-methyl-2,4-dioxo-1,4-dihydroquinazolin-3(2H)-yl)acetamide], the melting point is 266 to 269 °C. On NHE-1 [1], the inhibition at 0.01 µM worked out at 33.7% and the “NHE-1 inhibitory activity (in words)” value was “comparable to the reference drug rimeporide”. In the data set with rabbit platelets, the “antiplatelet activity versus acetylsalicylic acid” value is listed as “exceeded the activity of the reference drug, acetylsalicylic acid”. Moreover, 293 nM corresponded to half-maximal inhibition at NHE-1 [4] (IC50).
Consider `N=C(N)NC(=O)c1nc(Cl)c(N)nc1N` [Amiloride, amiloride, reference compound], for which the inhibition at 0.01 µM on NHE-1 [1] came to 16.4%. Further, the IC50 in data set [6] (Mus musculus, Peritoneal macrophage, LPS-stimulated murine macrophages, unit printed in Cyrillic, read-out: IC50 of IL-6 secretion) was 9520 nM; against NHE-1 [4], 1230 nM. Besides, the CC50 – broadly, the concentration at which the toxic effect on the cells reaches its halfway point – at 24 h in [7] is greater than 100000 nM.
The compound `N=C(N)NC(=O)Cn1c(=O)c2ccccc2n(Cc2ccccc2)c1=O` [Compound 3c, 2-(1-Benzyl-2,4-dioxo-1,4-dihydroquinazolin-3(2H)-yl)-N-carbamimidoylacetamide] came in with a melting point of 180 to 183 °C. The inhibition at 0.01 µM on NHE-1 [1] came out at 7.3%. Moreover, in data set [6], the “secretion of interleukin 6” value was “suppressed”.
